This passage reports IC50 results from patent publication US10538555B2, “Macrocyclic inhibitors of the PD-1/PD-L1 and CD80(B7-1)/PD-L1 protein/protein interactions” (BRISTOL-MYERS SQUIBB COMPANY, priority 2014, dated 2020).

*1 amine or outer side, *2 acyl side, *3 side chain or, on linkers, in order; H or OH if unused. Where a SMILES comes first, the peptide text is derived from it. Bridges are numbered along the chain shown (N, C = ends). [ ]: non-standard residue; d: D form. Phe(3,4,5-F3) = N[C@@H](Cc1cc(F)c(F)c(F)c1)C(=O)O; Phe(3,4-F2) = N[C@@H](Cc1ccc(F)c(F)c1)C(=O)O; Trp(1-Me) = Cn1cc(C[C@H](N)C(=O)O)c2ccccc21; Phe(4-F) = N[C@@H](Cc1ccc(F)cc1)C(=O)O; d(cisHyp) = O=C(O)[C@H]1C[C@@H](O)CN1; Phe(2-F) = N[C@@H](Cc1ccccc1F)C(=O)O; Bta = N[C@@H](Cc1csc2ccccc12)C(=O)O; NMeY = CN[C@@H](Cc1ccc(O)cc1)C(=O)O; Hyp = O=C(O)[C@@H]1C[C@@H](O)CN1; NMeF = CN[C@@H](Cc1ccccc1)C(=O)O; X1 = O=C([C@H]1COCCN1[*:1])[*:2]; dPip(4-aza) = O=C(O)[C@H]1CNCCN1; dHyp = O=C(O)[C@H]1C[C@H](O)CN1; NMeL = CN[C@@H](CC(C)C)C(=O)O; NMeNle = CCCC[C@H](NC)C(=O)O; Pip = O=C(O)[C@@H]1CCCCN1; dPip = O=C(O)[C@H]1CCCCN1; hSer = N[C@@H](CCO)C(=O)O; NMeA = CN[C@@H](C)C(=O)O; Orn = NCCC[C@H](N)C(=O)O; Dab = NCC[C@H](N)C(=O)O; Dap = NC[C@H](N)C(=O)O; Sar = CNCC(=O)O

The target in this experiment is T1, Human PD-L1/PD-1 (Homo sapiens, UniProt Q9NZQ7).
T1 construct: TVMV protease cleavage site (C); made in house; host or cells: HEK293T cells
T1 sequence (Q9NZQ7 with tags, fused parts or gaps): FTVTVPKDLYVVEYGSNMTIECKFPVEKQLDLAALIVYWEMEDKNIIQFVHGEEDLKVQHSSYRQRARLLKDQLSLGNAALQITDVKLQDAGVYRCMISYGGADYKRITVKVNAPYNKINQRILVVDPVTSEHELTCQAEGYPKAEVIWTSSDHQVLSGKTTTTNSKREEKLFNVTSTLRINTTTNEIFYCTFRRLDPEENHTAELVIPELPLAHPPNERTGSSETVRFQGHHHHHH
The experiment is described as follows: HTRF Human PD-L1/PD-1 binding assay (PD-1-Ig/PD-L1-His). The following applies: PD-L1-His 10 nM, PD-1-Ig 20 nM; class symbol; read-out: HTRF Human PD-L1/PD-1 Binding Assay IC50 Range. The essentials:
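Compound preincubated 15 min with PD-L1-His (10 nM final), then PD-1-Ig (20 nM final) added for 15 min in dPBS with 0.1% BSA and 0.05% Tween-20. Detection by Eu-cryptate anti-Ig (1 nM) and APC anti-His (20 nM) after 30 min; 665/620 nm HTRF ratio. Proteins expressed in HEK293T.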
For `CCCC[C@H]1C(=O)N2C[C@H](O)C[C@@H]2C(=O)N[C@@H](CC(=O)O)C(=O)N[C@@H](C(C)C)C(=O)N(C)[C@@H](Cc2ccccc2)C(=O)N[C@@H](Cc2ccc(O)cc2)C(=O)N2C[C@H](O)C[C@@H]2C(=O)N[C@@H](Cc2c[nH]c3ccccc23)C(=O)N[C@@H](Cc2ccc(O)cc2)C(=O)N[C@@H](CC(C)C)C(=O)N[C@H](C(=O)NCC(N)=O)CSCC(=O)N[C@@H](Cc2cc(F)c(F)c(F)c2)C(=O)N(C)[C@@H](Cc2ccccc2)C(=O)N1C` [Example 9367] ({CH2CO}-[Phe(3,4,5-F3)][NMeF][NMeNle][d(cisHyp)]DV[NMeF]Y[d(cisHyp)]WYLCG-NH2; thioether N-13), the IC50 fell in the range of 10 to 99.9 nM.

On to `CCCC[C@H]1C(=O)N2C[C@H](O)C[C@@H]2C(=O)N[C@@H](CC(=O)O)C(=O)N[C@@H](C(C)C)C(=O)N(C)[C@@H](Cc2ccccc2)C(=O)N[C@@H](CCCN)C(=O)N2CCNC[C@@H]2C(=O)N[C@@H](Cc2c[nH]c3ccccc23)C(=O)N[C@@H](Cc2ccc(O)cc2)C(=O)N[C@@H](CCO)C(=O)N[C@H](C(=O)NCC(N)=O)CSCC(=O)N[C@@H](Cc2cc(F)c(F)c(F)c2)C(=O)N(C)[C@@H](Cc2ccccc2)C(=O)N1C` [Example 10169] ({CH2CO}-[Phe(3,4,5-F3)][NMeF][NMeNle][d(cisHyp)]DV[NMeF][Orn][dPip(4-aza)]WY[hSer]CG-NH2; thioether N-13), for which the IC50 was 1 to 9.9 nM.

`CCCC[C@H]1C(=O)N2CCC[C@@H]2C(=O)N[C@@H](CC(=O)O)C(=O)N[C@@H](C(C)C)C(=O)N(C)[C@@H](CC(C)C)C(=O)N[C@@H](CCC(N)=O)C(=O)N2CCCC[C@@H]2C(=O)N[C@@H](Cc2c[nH]c3ccccc23)C(=O)N[C@@H](Cc2ccc(O)cc2)C(=O)N[C@@H](CCCN)C(=O)N[C@H](C(=O)NCC(N)=O)CSCC(=O)N[C@@H](Cc2ccc(F)cc2)C(=O)N(C)[C@@H](Cc2ccccc2)C(=O)N1C` [Example 9256] ({CH2CO}-[Phe(4-F)][NMeF][NMeNle][dP]DV[NMeL]Q[dPip]WY[Orn]CG-NH2; thioether N-13): the IC50 was 1000 to 10000 nM.

As for `CCCC[C@H]1C(=O)N2CCC[C@@H]2C(=O)N[C@@H](CC(=O)O)C(=O)N[C@@H](C(C)C)C(=O)N(C)[C@@H](Cc2ccccc2)C(=O)N[C@@H](CCC(=O)O)C(=O)N2CCOC[C@@H]2C(=O)N[C@@H](Cc2c[nH]c3ccccc23)C(=O)N[C@@H](Cc2ccc(O)cc2)C(=O)N[C@@H](CCC(N)=O)C(=O)N[C@H](C(=O)NCC(N)=O)CSCC(=O)N[C@@H](Cc2cc(F)c(F)c(F)c2)C(=O)N(C)[C@@H](Cc2ccc(O)cc2)C(=O)N1C` [Example 10619] ({CH2CO}-[Phe(3,4,5-F3)][NMeY][NMeNle][dP]DV[NMeF]E[X1]WYQCG-NH2; thioether N-13), the IC50 lay within 10 to 99.9 nM.

In the case of `CCCC[C@H]1C(=O)N(C)[C@@H](CCCC)C(=O)N[C@@H](CCC(=O)O)C(=O)N[C@H](C(=O)NCC(N)=O)CSCC(=O)N[C@@H](Cc2ccc(O)cc2)C(=O)N2CCCC[C@H]2C(=O)N[C@@H](CC(=O)O)C(=O)N2CCC[C@H]2C(=O)N[C@@H](Cc2cnc[nH]2)C(=O)N[C@@H](CCC(=O)O)C(=O)N2C[C@H](O)C[C@H]2C(=O)N[C@@H](Cc2c[nH]c3ccccc23)C(=O)N[C@@H](CO)C(=O)N[C@@H](Cc2cn(C)c3ccccc23)C(=O)N1C` [Example 1505] ({CH2CO}-Y[Pip]DPHE[Hyp]WS[Trp(1-Me)][NMeNle][NMeNle]ECG-NH2; thioether N-14), the IC50 lay in the range of 1 to 9.9 nM.

Take `CCCC[C@H]1C(=O)N(C)[C@@H](CCCC)C(=O)N[C@@H](CCCNC(=N)N)C(=O)N[C@H](C(=O)NCC(N)=O)CSCC(=O)N[C@@H](Cc2ccc(F)c(F)c2)C(=O)N(C)[C@@H](C)C(=O)N[C@@H](CC(N)=O)C(=O)N2CCC[C@H]2C(=O)N[C@@H](CN)C(=O)N[C@@H](CC(C)C)C(=O)N2C[C@H](O)C[C@H]2C(=O)N[C@@H](Cc2c[nH]c3ccccc23)C(=O)N[C@@H](CO)C(=O)N[C@@H](Cc2c[nH]c3ccccc23)C(=O)N1C` [Example 7068] ({CH2CO}-[Phe(3,4-F2)][NMeA]NP[Dap]L[Hyp]WSW[NMeNle][NMeNle]RCG-NH2; thioether N-14): the IC50 is 10 to 99.9 nM.

For `CCCC[C@H]1C(=O)N2C[C@@H](O)C[C@@H]2C(=O)N[C@@H](CC(=O)O)C(=O)N[C@@H](C)C(=O)N(C)[C@@H](Cc2ccccc2)C(=O)N[C@@H](Cc2ccc(O)cc2)C(=O)N(C)CC(=O)N[C@@H](Cc2c[nH]c3ccccc23)C(=O)N[C@@H](Cc2ccc(O)cc2)C(=O)N[C@@H](CC(C)C)C(=O)N[C@H](C(=O)NCC(N)=O)CSCC(=O)N[C@@H](Cc2ccccc2)C(=O)N(C)[C@@H](Cc2ccccc2)C(=O)N1C` [Example 10086] ({CH2CO}-F[NMeF][NMeNle][dHyp]DA[NMeF]Y[Sar]WYLCG-NH2; thioether N-13), the IC50 lay within 10 to 99.9 nM.

For the molecule `CCCC[C@H]1C(=O)N2CCC[C@@H]2C(=O)N[C@@H](CO)C(=O)N[C@@H](C(C)C)C(=O)N(C)[C@@H](Cc2ccccc2)C(=O)N[C@@H](Cc2ccc(O)cc2)C(=O)N(C)CC(=O)N[C@@H](Cc2csc3ccccc23)C(=O)N[C@@H](Cc2ccc(O)cc2)C(=O)N[C@@H](CC(C)C)C(=O)N[C@H](C(=O)NCC(N)=O)CSCC(=O)N[C@@H](Cc2ccccc2)C(=O)N(C)[C@@H](Cc2ccccc2)C(=O)N1C` [Example 10063] ({CH2CO}-F[NMeF][NMeNle][dP]SV[NMeF]Y[Sar][Bta]YLCG-NH2; thioether N-13), the IC50 lay in the range of 10 to 99.9 nM.

With `CCCC[C@H]1C(=O)N(C)[C@@H](CCCC)C(=O)N[C@@H](CCC(=O)O)C(=O)N[C@H](C(=O)NCC(N)=O)CSCC(=O)N[C@@H](Cc2ccc(OC)cc2)C(=O)N(C)[C@@H](C)C(=O)N[C@@H](CC(=O)O)C(=O)N2CCC[C@H]2C(=O)N[C@@H](Cc2cnc[nH]2)C(=O)N[C@@H](CCCCN)C(=O)N2C[C@H](O)C[C@H]2C(=O)N[C@@H](Cc2c[nH]c3ccccc23)C(=O)N[C@@H](CCN)C(=O)N[C@@H](Cc2c[nH]c3ccccc23)C(=O)N1C` [Example 7119] ({CH2CO}-Y(Me)[NMeA]DPHK[Hyp]W[Dab]W[NMeNle][NMeNle]ECG-NH2; thioether N-14), the IC50 fell in the range of 1 to 9.9 nM.

In the case of `CCCC[C@H]1C(=O)N2C[C@H](O)C[C@@H]2C(=O)N[C@@H](CC(=O)O)C(=O)N[C@@H](C(C)C)C(=O)N(C)[C@@H](Cc2ccccc2)C(=O)N[C@@H](Cc2ccc(O)cc2)C(=O)N2CCOC[C@@H]2C(=O)N[C@@H](Cc2c[nH]c3ccccc23)C(=O)N[C@@H](Cc2ccccc2F)C(=O)N[C@@H](CC(C)C)C(=O)N[C@H](C(=O)NCC(N)=O)CSCC(=O)N[C@@H](Cc2cc(F)c(F)c(F)c2)C(=O)N(C)[C@@H](Cc2ccccc2)C(=O)N1C` [Example 10195] ({CH2CO}-[Phe(3,4,5-F3)][NMeF][NMeNle][d(cisHyp)]DV[NMeF]Y[X1]W[Phe(2-F)]LCG-NH2; thioether N-13), the IC50 fell in the range of 1 to 9.9 nM.

Regarding `CCCC[C@H]1C(=O)N2C[C@H](O)C[C@@H]2C(=O)N[C@@H](CC(=O)O)C(=O)N[C@@H](C(C)C)C(=O)N(C)[C@@H](Cc2ccccc2)C(=O)N[C@@H](CCC(=O)O)C(=O)N2C[C@H](O)C[C@@H]2C(=O)N[C@@H](Cc2c[nH]c3ccccc23)C(=O)N[C@@H](Cc2ccc(O)cc2)C(=O)N[C@@H](CC(C)C)C(=O)N[C@H](C(=O)NCC(N)=O)CSCC(=O)N[C@@H](Cc2cc(F)c(F)c(F)c2)C(=O)N(C)[C@@H](Cc2ccccc2)C(=O)N1C` [Example 9330] ({CH2CO}-[Phe(3,4,5-F3)][NMeF][NMeNle][d(cisHyp)]DV[NMeF]E[d(cisHyp)]WYLCG-NH2; thioether N-13), the IC50 is 10 to 99.9 nM.
